Reference: patent US9440969B2, “Compounds and methods for kinase modulation, and indications therefor” (PLEXXIKON INC., priority 2009, dated 2016)

Key:
CYP2C9 = CYP2C9 (Homo sapiens, UniProt P11712); test: CYP2C9 inhibition (fluorescent substrate MFC); format: in vitro ADME; conditions: read-out: Cyp IC50 (μM) 2C9
Protocol: CYP (Cytochrome P450) enzymes are the major drug metabolizing enzymes present in the liver. The inhibition of CYP enzyme activity (IC50) for each of CYP1A2, CYP2C19, CYP2C9, CYP2D6, CYP3A4(BFC) and CYP3A4(BQ) is determined for compounds, where inhibition of metabolism of a known substrate leads to a decrease in the fluorescence of the metabolized product. The fluorescence of the product is monitored as a function of compound concentration. Compounds are dissolved in dimethyl sulfoxide to a concentration of 100 mM. These are diluted […], into 82 μL of acetonitrile. An 11 μL aliquot of this solution is then added to 204 μL of cofactor mix (1.3% NADPH Regeneration system Solution A, 1.04% NADPH Regeneration system Solution B from BD Biosciences, 5% acetonitrile and 0.05% dimethyl sulfoxide). These are then serially diluted 1:1 (160 μL to 160 μL co-factor mix) for a total of 10 points. A 10 μL aliquot of this final mixture is dispensed into 384 well assay plates and incubated for 10 minutes at 37° C. Enzyme and substrate mix (10 μL; 0.5 pmol CYP1A2/5 μM CEC; 1.0 pmol CYP2C9/75 μM MFC; 0.5 pmol CYP2C19/25 μM CEC; 1.5 pmol CYP2D6/1.5 μM AMMC; 1.0 pmol CYP3A4/50 μM BFC; or 1.0 pmol CYP3A4/40 μM BQ) is added to these assay plates. Assay plates are incubated at 37° C. (CYP1A2-15 min; CYP2C9-45 min; CYP2C19, 2D6 and 3A4-30 min) and read in a Tecan Safire 2 plate reader (CYP1A2, 2C19 and 3A4 409 ex/460 em; CYP2C9 and 2D6 409 ex/530 em). The signal versus compound concentration is used to determine the IC50. The enzymes and substrates for this assay are obtained from BD Biosciences.

[1] = test system: COLO205 colon adenocarcinoma (B-Raf V600E mutation); test: COLO205 cell growth inhibition (ATPlite luminescence); format: cell-based; conditions: Homo sapiens, COLO 205, 72 h, COLO205 cells, incubated 3 days with compound
How it was run: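 Cells seeded at 6×10^4 cells/mL in line-specific medium with 10% FBS, held overnight at 37°C, then given an 8-point 1:3 compound titration (top 10 μM final) for 3 days at 37°C, 5% CO2. ATP content read by ATPlite luminescence as a cell-number proxy; IC50 fitted from luminescence versus concentration.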

Chain of CYP2C9 (P11712 whole entry): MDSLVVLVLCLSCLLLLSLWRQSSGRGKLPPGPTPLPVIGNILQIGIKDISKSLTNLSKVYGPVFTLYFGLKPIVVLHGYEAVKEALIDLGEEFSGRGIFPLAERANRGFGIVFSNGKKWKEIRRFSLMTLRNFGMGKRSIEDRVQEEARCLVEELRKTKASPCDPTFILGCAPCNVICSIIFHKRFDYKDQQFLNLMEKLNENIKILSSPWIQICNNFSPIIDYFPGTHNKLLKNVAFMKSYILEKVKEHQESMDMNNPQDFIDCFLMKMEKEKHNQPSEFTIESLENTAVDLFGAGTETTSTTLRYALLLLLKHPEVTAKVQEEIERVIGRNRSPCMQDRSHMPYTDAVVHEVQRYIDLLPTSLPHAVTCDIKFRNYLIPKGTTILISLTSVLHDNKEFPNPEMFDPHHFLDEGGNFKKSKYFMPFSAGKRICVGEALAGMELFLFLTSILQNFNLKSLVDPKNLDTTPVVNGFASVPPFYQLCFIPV

IC50 (CYP2C9) [µM]	IC50 [1] [µM]	SMILES
< 5	< 1	CCCS(=O)(=O)Nc1ccc(F)c(C(=O)c2c[nH]c3ncc(-c4ccc5[nH]ncc5c4)cc23)c1F [P-0001, propane-1-sulfonic acid {2,4-difluoro-3-[5-(1H-indazol-5-yl)-1H-pyrrolo[2,3-b]pyridine-3-carbonyl]-phenyl}-amide]
< 5	< 1	O=C(c1c(F)ccc(NS(=O)(=O)c2cc(F)ccc2F)c1F)c1c[nH]c2ncc(-c3ccc4[nH]ncc4c3)cc12 [P-0002, N-{2,4-Difluoro-3-[5-(1H-indazol-5-yl)-1H-pyrrolo[2,3-b]pyridine-3-carbonyl]-phenyl}-2,5-difluoro-benzenesulfonamide]
< 5	< 1	CNC(=O)n1ncc2cc(-c3cnc4[nH]cc(C(=O)c5c(F)ccc(NS(=O)(=O)c6cc(F)ccc6F)c5F)c4c3)ccc21 [P-0003, 5-{3-[3-(2,5-Difluoro-benzenesulfonylamino)-2,6-difluoro-benzoyl]-1H-pyrrolo[2,3-b]pyridin-5-yl}-indazole-1-carboxylic acid methylamide]
< 5	< 1	CC(=O)n1cc(C(=O)c2c(F)ccc(NS(=O)(=O)c3cc(F)ccc3F)c2F)c2cc(-c3ccc4c(cnn4C(C)=O)c3)cnc21 [P-0004, N-{3-[1-Acetyl-5-(1-acetyl-1H-indazol-5-yl)-1H-pyrrolo[2,3-b]pyridine-3-carbonyl]-2,4-difluoro-phenyl}-2,5-difluoro-benzenesulfonamide]
< 5	< 1	CC(=O)n1ncc2cc(-c3cnc4[nH]cc(C(=O)c5c(F)ccc(NS(=O)(=O)c6cc(F)ccc6F)c5F)c4c3)ccc21 [P-0005, N-{3-[5-(1-Acetyl-1H-indazol-5-yl)-1H-pyrrolo[2,3-b]pyridine-3-carbonyl]-2,4-difluoro-phenyl}-2,5-difluoro-benzenesulfonamide]
< 5	< 1	CCCS(=O)(=O)Nc1ccc(F)c(C(=O)c2c[nH]c3ncc(-c4ccc5c(cnn5C(C)=O)c4)cc23)c1F [P-0007, propane-1-sulfonic acid {3-[5-(1-acetyl-1H-indazol-5-yl)-1H-pyrrolo[2,3-b]pyridine-3-carbonyl]-2,4-difluoro-phenyl}-amide]
5 to 10	< 1	CCCS(=O)(=O)Nc1ccc(F)c(C(=O)c2c[nH]c3ncc(-c4ccc5[nH]ccc5c4)cc23)c1F [P-0012, Propane-1-sulfonic acid {2,4-difluoro-3-[5-(1H-indol-5-yl)-1H-pyrrolo[2,3-b]pyridine-3-carbonyl]-phenyl}-amide]
> 10	< 1	CCCS(=O)(=O)Nc1ccc(F)c(C(=O)c2c[nH]c3ncc(-c4ccc5[nH]cc(C)c5c4)cc23)c1F [P-0023, Propane-1-sulfonic acid {2,4-difluoro-3-[5-(3-methyl-1H-indol-5-yl)-1H-pyrrolo[2,3-b]pyridine-3-carbonyl]-phenyl}-amide]
5 to 10	< 1	CCCS(=O)(=O)Nc1ccc(F)c(C(=O)c2c[nH]c3ncc(-c4ccc5cncnc5c4)cc23)c1F [P-0025, Propane-1-sulfonic acid [2,4-difluoro-3-(5-quinazolin-7-yl-1H-pyrrolo[2,3-b]pyridine-3-carbonyl)-phenyl]-amide]
5 to 10	–	Cc1ccc(-c2cnc3[nH]cc(C(=O)c4c(F)ccc(NS(=O)(=O)c5cc(F)ccc5F)c4F)c3c2)cn1 [P-1408, N-{2,4-Difluoro-3-[5-(6-methyl-pyridin-3-yl)-1H-pyrrolo[2,3-b]pyridine-3-carbonyl]-phenyl}-2,5-difluoro-benzenesulfonamide]
> 10	–	Cc1ncc(-c2cnc3[nH]cc(C(=O)c4c(F)ccc(NS(=O)(=O)c5cc(F)ccc5F)c4F)c3c2)cn1 [P-1503, N-{2,4-Difluoro-3-[5-(2-methyl-pyrimidin-5-yl)-1H-pyrrolo[2,3-b]pyridine-3-carbonyl]-phenyl}-2,5-difluoro-benzenesulfonamide]

Further lines, the molecule ahead of its results:

SMILES	IC50 (CYP2C9) [µM]	IC50 [1] [µM]
CC(=O)N(c1ccc(F)c(C(=O)c2cn(C(C)=O)c3ncc(-c4ccc5c(cnn5C(C)=O)c4)cc23)c1F)S(=O)(=O)c1cc(F)ccc1F [P-0006, N-Acetyl-N-{3-[1-acetyl-5-(1-acetyl-1H-indazol-5-yl)-1H-pyrrolo[2,3-b]pyridine-3-carbonyl]-2,4-difluoro-phenyl}-2,5-difluoro-benzenesulfonamide]	< 5	< 1
CCCS(=O)(=O)Nc1ccc(F)c(C(=O)c2c[nH]c3ncc(-c4ccc5nn(C)cc5c4)cc23)c1F [P-0010, Propane-1-sulfonic acid {2,4-difluoro-3-[5-(2-methyl-2H-indazol-5-yl)-1H-pyrrolo[2,3-b]pyridine-3-carbonyl]-phenyl}-amide]	> 10	< 1
CCCS(=O)(=O)Nc1ccc(F)c(C(=O)c2c[nH]c3ncc(-c4ccc5cn(C)nc5c4)cc23)c1F [P-0011, Propane-1-sulfonic acid {2,4-difluoro-3-[5-(2-methyl-2H-indazol-6-yl)-1H-pyrrolo[2,3-b]pyridine-3-carbonyl]-phenyl}-amide]	5 to 10	< 1
CCCS(=O)(=O)Nc1ccc(F)c(C(=O)c2c[nH]c3ncc(-c4cccc5nn(C)cc45)cc23)c1F [P-0015, Propane-1-sulfonic acid {2,4-difluoro-3-[5-(2-methyl-2H-indazol-4-yl)-1H-pyrrolo[2,3-b]pyridine-3-carbonyl]-phenyl}-amide]	5 to 10	< 1
CCCS(=O)(=O)Nc1ccc(F)c(C(=O)c2c[nH]c3ncc(-c4ccc5c(cnn5S(C)(=O)=O)c4)cc23)c1F [P-0016, propane-1-sulfonic acid {2,4-difluoro-3-[5-(1-methanesulfonyl-1H-indazol-5-yl)-1H-pyrrolo[2,3-b]pyridine-3-carbonyl]-phenyl}-amide]	> 10	< 1
CCCS(=O)(=O)Nc1ccc(F)c(C(=O)c2c[nH]c3ncc(-c4ccc5ncsc5c4)cc23)c1F [P-0020, Propane-1-sulfonic acid [3-(5-benzothiazol-6-yl-1H-pyrrolo[2,3-b]pyridine-3-carbonyl)-2,4-difluoro-phenyl]-amide]	> 10	< 1
CCCS(=O)(=O)Nc1ccc(F)c(C(=O)c2c[nH]c3ncc(-c4cnn(C5CCNCC5)c4)cc23)c1F [P-1002, Propane-1-sulfonic acid {2,4-difluoro-3-[5-(1-piperidin-4-yl-1H-pyrazol-4-yl)-1H-pyrrolo[2,3-b]pyridine-3-carbonyl]-phenyl}-amide]	> 10	< 1
O=C(c1c(F)ccc(NS(=O)(=O)c2ccc(C(F)(F)F)cc2)c1F)c1c[nH]c2ncc(-c3cnn(C4CCNCC4)c3)cc12 [P-1004, N-{2,4-Difluoro-3-[5-(1-piperidin-4-yl-1H-pyrazol-4-yl)-1H-pyrrolo[2,3-b]pyridine-3-carbonyl]-phenyl}-4-trifluoromethyl-benzenesulfonamide]	> 10	> 1
CCCS(=O)(=O)Nc1ccc(F)c(C(=O)c2c[nH]c3ncc(-c4csc(-n5ccnc5C)n4)cc23)c1F [P-1101, Propane-1-sulfonic acid (2,4-difluoro-3-{5-[2-(2-methyl-imidazol-1-yl)-thiazol-4-yl]-1H-pyrrolo[2,3-b]pyridine-3-carbonyl}-phenyl)-amide]	< 5	< 1
